What was measured:
[1] = system: Hep-2; assay: MTT cytotoxicity assay; assay type: cell-based; details: Homo sapiens, HEp-2, 72 h, 3 days
Protocol: (§1) The cytotoxicity of the prepared tri-and tetra-cyclic thiadiazolopyrimidine compounds were examined toward various cancer cell lines, such as liver and breast cancer (MCF-7), prostate cancer (PC3), laryngeal carcinoma (Hep-2), carcinoma (HepG2), and standard normal fibroblast cells (WI38) using the MTT assay[33] at the National Research Centre (Egypt). The cytotoxicity (Table 3) toward 50% inhibition of the cell viability (IC50 values) was assessed using 5-fluorouracil (5-Fu) as the standard anticancer drug.
(§2) The synthesized compounds were subjected to the MTT cytotoxicity assay on the basis of the cited literature.
(§3) MTT cytotoxicity assay: The technical method of MTT assay depends on the reduction of yellow 3-(4,5-methyl-2-thiazolyl)-2,5-diphenyl-2H-tetrazolium bromide (MTT) into purple formazan product, mainly by mitochondrial reductase activity inside the living cells. The cells used in cytotoxicity assay were cultured in RPMI 1640 medium supplemented with 10% fetal calf serum. Cells suspended in the medium (2×10^4 cells/mL) were plated in 96-well culture plates and incubated at 37 °C in a 5% CO2 incubator for 12 hours. The tested sample (2 μL) was added to the cells (2×10^4) in 96-well plates and cultured at 37 °C for 3 days. The cultured cells were mixed with 20 μL of MTT solution and incubated for 4 hours at 37 °C. The supernatant was carefully removed from each well, the formazan crystals were dissolved after addition of DMSO (100 μL) for each well to form the cellular reduction of MTT. After mixing with a mechanical plate mixer, the absorbance of each well was measured by a microplate reader using a test wavelength of 570 nm. The results were expressed as the IC50 values, which inducing 50% inhibition of cell growth of the treated cells when compared to the growth of control cells.

[2] = system: HepG2; assay: MTT cytotoxicity assay; assay type: cell-based; details: Homo sapiens, HepG2, 72 h, 3 days
Protocol: as §1, §2, §3

[3] = system: MCF-7; assay: MTT cytotoxicity assay; assay type: cell-based; details: Homo sapiens, MCF7, 72 h, 3 days
Protocol: as §1, §2, §3

[4] = system: PC3; assay: MTT cytotoxicity assay; assay type: cell-based; details: Homo sapiens, PC-3, 72 h, 3 days
Protocol: as §1, §2, §3

[5] = system: DNA; assay: Bleomycin-dependent DNA damage; assay type: biochemical; details: test sample 0.1 mg/mL, λ = 532 nm; mean of three replicates ± SD; ascorbic acid 0.24 mM
Source text: Bleomycin-dependent DNA damage. The prepared polycyclic thiadiazolopyrimidine-based compounds were examined through the bleomycin-dependant DNA damage, and the results were compared to that of ascorbic acid as a positive control. The obtained data reflected the ability of these derivatives to protect the DNA from damage. The capability of compounds 16a–b and 17a–b to manifest the best protective effect against DNA damage was indicated by the corresponding absorbance values ranging from 0.031 to 0.053 (Table 4)[35],[36].
Bleomycin-dependent DNA damage experiment: To a mixture of 0.5 mg / mL of DNA, 5 mM magnesium chloride, 50 mM ferric chloride and 0.05 mg / mL bleomycin sulfate was prepared. The test sample was prepared at a concentration of 0.1 mg / mL and added to the mixture. After incubation of the mixture for one hour at 37 °C, 0.05 mL of EDTA (0.1 M) was added to terminate the reaction. In the next step, 0.5 mL of TBA (1% w / v) and 0.5 mL of HCl (25% v / v) were added for colour development and the mixture was heated for 10 minutes at 80 °C. The mixture was centrifuged and the absorbance expressed, the amount of damage to the DNA was measured at λ = 532 nm. L-Ascorbic acid (0.24 mM) was used as a positive control.

Nc1c2c(=O)nc3scnn3c2nc2nnnn12 [Compound 11, 6-Amino-5H-[1,3,4]thiadiazolo[2′,3′:2,3]pyrimido[4,5-d]tetrazolo[1,5-a]pyrimidin-5-one]
IC50 [1]: 38.8 ± 0.74 µM
IC50 [2]: 42.2 ± 1.17 µM
IC50 [3]: 31.8 ± 0.67 µM
IC50 [4]: 38.1 ± 0.49 µM
Absorbance (bleomycin-dependent DNA damage) [5]: 0.113 ± 0.16
melting point: 274 to 275 °C

Nc1n[nH]c2c1c(=O)nc1scnn12 [Compound 4, 3-Aminopyrazolo[4,3-e][1,3,4]thiadiazolo[3,2-a]pyrimidin-4(1H)-one]
IC50 [1]: 78.4 ± 2.2 µM
IC50 [2]: 15.4 ± 0.45 µM
IC50 [3]: 61.2 ± 1.11 µM
IC50 [4]: 72.3 ± 2.18 µM
Absorbance (bleomycin-dependent DNA damage) [5]: 0.165 ± 0.19
melting point: 281 to 282 °C

CCOC(=O)c1c(N)nc(N)c2c(=O)nc3scnn3c12 [Compound 7, Ethyl 6,8-diamino-5-oxo-5H-pyrido[3,4-e][1,3,4]thiadiazolo[3,2-a]pyrimidine-9-carboxylate]
IC50 [1]: 34.2 ± 0.93 µM
IC50 [2]: 36.73 ± 0.17 µM
IC50 [3]: 39.8 ± 0.68 µM
IC50 [4]: 61.8 ± 1.35 µM
Absorbance (bleomycin-dependent DNA damage) [5]: 0.132 ± 0.19
melting point: 278 to 280 °C

CC1=C(C#N)C2C(=C(N)O1)C(=O)N=C1SC=NN12 (stereo not shown) [Compound 9a, 6-Amino-9-cyano-8-methyl-5-oxo-5H,9aH-pyrano[3,4-e][1,3,4]thiadiazolo[3,2-a]pyrimidine]
IC50 [1]: 20 ± 0.24 µM
IC50 [2]: 33.2 ± 0.36 µM
IC50 [3]: 22.7 ± 0.29 µM
IC50 [4]: 46.4 ± 1.07 µM
Absorbance (bleomycin-dependent DNA damage) [5]: 0.064 ± 0.06
melting point: 264 to 265 °C

Cc1ccc(N=Nc2c(N)nn3c(N)c4c(=O)nc5scnn5c4nc23)cc1 [Compound 16a, 6,9-Diamino-10-(4-methylphenylazo)-5H-pyrazolo[1′,5′:1,2]pyrimido[5,4-e][1,3,4]thiadiazolo[3,2-a]pyrimidin-5-one]
IC50 [1]: 32.7 ± 0.36 µM
IC50 [2]: 37.6 ± 1.26 µM
IC50 [3]: 7.53 ± 0.08 µM
IC50 [4]: 44.2 ± 0.94 µM
Absorbance (bleomycin-dependent DNA damage) [5]: 0.039 ± 0.07
melting point: > 320 °C

N#Cc1c(N)nc(N)c2c(=O)nc3scnn3c12 [Compound 6, 6,8-Diamino-9-cyano-5-oxo-5H-pyrido[3,4-e][1,3,4]thiadiazolo[3,2-a]pyrimidine]
IC50 [1]: 57.6 ± 1.72 µM
IC50 [2]: 62.2 ± 1.07 µM
IC50 [3]: 49.6 ± 1.25 µM
IC50 [4]: 66.3 ± 2.49 µM
Absorbance (bleomycin-dependent DNA damage) [5]: 0.135 ± 0.14
melting point: 302 to 303 °C

Cc1ccc(N=Nc2c(O)nn3c(N)c4c(=O)nc5scnn5c4nc23)cc1 [Compound 17a, 6-Amino-9-hydroxy-10-(4-methylphenylazo)-5H-pyrazolo[1′,5′:1,2]pyrimido[5,4-e][1,3,4]thiadiazolo[3,2-a]pyrimidin-5-one]
IC50 [1]: 29.58 ± 0.15 µM
IC50 [2]: 38.27 ± 0.17 µM
IC50 [3]: 9.36 ± 0.23 µM
IC50 [4]: 39.4 ± 2.01 µM
Absorbance (bleomycin-dependent DNA damage) [5]: 0.053 ± 0.05
melting point: 264 to 265 °C

CC(=O)C1=C(C)OC(N)=C2C(=O)N=C3SC=NN3C12 (stereo not shown) [Compound 8a, 9-Acetyl-6-amino-8-methyl-5H,9aH-pyrano[3,4-e][1,3,4]thiadiazolo[3,2-a]pyrimidin-5-one]
IC50 [1]: 22.61 ± 0.21 µM
IC50 [2]: 37.12 ± 0.23 µM
IC50 [3]: 33.42 ± 0.23 µM
IC50 [4]: 34.4 ± 0.64 µM
Absorbance (bleomycin-dependent DNA damage) [5]: 0.078 ± 0.13

Nc1nn(-c2ccccc2)c2c1c(=O)nc1scnn12 [Compound 5, 3-Amino-1-phenylpyrazolo[4,3-e][1,3,4]thiadiazolo[3,2-a]pyrimidin-4(1H)-one]
IC50 [1]: 61.2 ± 1.51 µM
IC50 [2]: 19.2 ± 0.52 µM
IC50 [3]: 54.8 ± 1.48 µM
IC50 [4]: 61.8 ± 1.68 µM
Absorbance (bleomycin-dependent DNA damage) [5]: 0.146 ± 0.16
melting point: 254 to 255 °C

Cc1cc2nc3c(c(N)n2n1)c(=O)nc1scnn13 [Compound 13, 6-Amino-9-methyl-5H-pyrazolo[1′,5′:1,2]pyrimido[5,4-e][1,3,4]thiadiazolo[3,2-a]pyrimidin-5-one]
IC50 [1]: 30.2 ± 0.59 µM
IC50 [2]: 28.6 ± 0.41 µM
IC50 [3]: 57.6 ± 1.4 µM
IC50 [4]: 35.6 ± 0.88 µM
Absorbance (bleomycin-dependent DNA damage) [5]: 0.128 ± 0.11
melting point: 304 to 306 °C

COc1ccc(N=Nc2c(O)nn3c(N)c4c(=O)nc5scnn5c4nc23)cc1 [Compound 17b, 6-Amino-9-hydroxy-10-(4-methoxyphenylazo)-5H-pyrazolo[1′,5′:1,2]pyrimido[5,4-e][1,3,4]thiadiazolo[3,2-a]pyrimidin-5-one]
IC50 [1]: 19 ± 0.4 µM
IC50 [2]: 33.54 ± 0.25 µM
IC50 [3]: 8.84 ± 0.17 µM
IC50 [4]: 36.8 ± 0.43 µM
Absorbance (bleomycin-dependent DNA damage) [5]: 0.042 ± 0.03
melting point: 280 to 281 °C

COc1ccc(N=Nc2c(N)nn3c(N)c4c(=O)nc5scnn5c4nc23)cc1 [Compound 16b, 6,9-Diamino-10-(4-methoxyphenylazo)-5H-pyrazolo[1′,5′:1,2]pyrimido[5,4-e][1,3,4]thiadiazolo[3,2-a]pyrimidin-5-one]
IC50 [1]: 38.2 ± 0.57 µM
IC50 [2]: 42.3 ± 0.75 µM
IC50 [3]: 5.69 ± 0.39 µM
IC50 [4]: 47.9 ± 1.48 µM
Absorbance (bleomycin-dependent DNA damage) [5]: 0.031 ± 0.04
melting point: > 320 °C

Cc1nn(-c2ccccc2)c2c1C1C(=C(N)O2)C(=O)N=C2SC=NN21 (stereo not shown) [Compound 10b, 6-Amino-10-methyl-8-phenyl-8,10b-dihydro-5H-pyrazolo[4′,3′:5,6]pyrano[3,4-e][1,3,4]thiadiazolo[3,2-a]pyrimidin-5-one]
IC50 [1]: 28.8 ± 1.8 µM
IC50 [2]: 37.6 ± 1.26 µM
IC50 [3]: 27.4 ± 0.49 µM
IC50 [4]: 27.3 ± 0.53 µM
Absorbance (bleomycin-dependent DNA damage) [5]: 0.119 ± 0.13
melting point: 266 to 267 °C

CC1=C(C(=O)c2ccccc2)C2C(=C(N)O1)C(=O)N=C1SC=NN12 (stereo not shown) [Compound 8b, 6-Amino-9-benzoyl-8-methyl-5H,9aH-pyrano[3,4-e][1,3,4]thiadiazolo[3,2-a]pyrimidin-5-one]
IC50 [1]: 14.7 ± 0.43 µM
IC50 [2]: 21.62 ± 0.14 µM
IC50 [3]: 14.7 ± 0.16 µM
IC50 [4]: 30.6 ± 0.57 µM
Absorbance (bleomycin-dependent DNA damage) [5]: 0.066 ± 0.05
melting point: 239 to 241 °C

Nc1c2c(=O)nc3scnn3c2nc2nncn12 [Compound 12, 6-Amino-5H-[1,2,4]triazolo[4′,3′:1,2]pyrimido[5,4-e][1,3,4]thiadiazolo[3,2-a]pyrimidin-5-one]
IC50 [1]: 34.1 ± 0.97 µM
IC50 [2]: 44.3 ± 1.35 µM
IC50 [3]: 36.92 ± 0.29 µM
IC50 [4]: 47.4 ± 0.89 µM
Absorbance (bleomycin-dependent DNA damage) [5]: 0.107 ± 0.08
melting point: 290 to 291 °C

Cc1n[nH]c2c1C1C(=C(N)O2)C(=O)N=C2SC=NN21 (stereo not shown) [Compound 10a, 6-Amino-10-methyl-8,10b-dihydro-5H-pyrazolo[4′,3′:5,6]pyrano[3,4-e][1,3,4]thiadiazolo[3,2-a]pyrimidin-5-one]
IC50 [1]: 34 ± 0.46 µM
IC50 [2]: 42 ± 1.24 µM
IC50 [3]: 24.2 ± 0.52 µM
IC50 [4]: 40.11 ± 0.36 µM
Absorbance (bleomycin-dependent DNA damage) [5]: 0.098 ± 0.07

Reference: PMC8333053, “Synthesis and biological screening of new thiadiazolopyrimidine-based polycyclic compounds” (Scientific Reports, 2021)
